One may read the IC50 as the concentration needed to halve the response being measured.

This test can be described thus: Antagonist activity against human CCR2 receptor assessed as inhibition of MCP1-induced migration of human peripheral blood monocytes.
Consider `O=C(CCCc1cc(-c2cc(Cl)cc(Cl)c2)nn1-c1ccc2ccccc2c1)NCCCc1ccncc1` [4-(3-(3,5-dichlorophenyl)-1-(naphthalen-2-yl)-1H-pyrazol-5-yl)-N-(3-(pyridin-4-yl)propyl)butanamide], for which the IC50 came out at 1400 nM.

In the case of `COC(=O)[C@H](CCCN=C(N)N)NC(=O)CCOc1cc(-c2cc(Cl)cc(Cl)c2)nn1-c1ccc2ccccc2c1` [(S)-2-{3-[5-(3,5-dichloro-phenyl)-2-naphthalen-2-yl-2H-pyrazol-3-yloxy]-propionylamino}-5-guanidino-pentanoic acid methyl ester], the IC50 worked out at 118 nM. As for `CCN(CC)CCCC(C)NC(=O)CCNc1cc(-c2cc(Cl)cc(Cl)c2)nn1-c1ccc2ccccc2c1` (stereo unspecified) [3-(3-(3,5-dichlorophenyl)-1-(naphthalen-2-yl)-1H-pyrazol-5-ylamino)-N-(5-(diethylamino)pentan-2-yl)propanamide], the IC50 was found to be 54 nM.

With `CCN(CC)CCCC(NC(=O)CCOc1cc(-c2cc(Cl)cc(Cl)c2)nn1-c1ccc2ccccc2c1)C(C)C` (stereo unspecified) [3-(3-(3,5-dichlorophenyl)-1-(naphthalen-2-yl)-1H-pyrazol-5-yloxy)-N-(6-(diethylamino)-2-methylhexan-3-yl)propanamide], the half-maximal inhibitory concentration (IC50) is 32 nM. In the case of `CCN(CC)CCCC(C)NC(=O)CCOc1cc(-c2cc(Cl)cc(Cl)c2)nn1-c1ccc2ccccc2c1` (stereo unspecified) [3-(3-(3,5-dichlorophenyl)-1-(naphthalen-2-yl)-1H-pyrazol-5-yloxy)-N-(5-(diethylamino)pentan-2-yl)propanamide], the IC50 amounted to 280 nM. For `CCC(C)CC(CCCN(CC)CC)NC(=O)CCOc1cc(-c2cc(Cl)cc(Cl)c2)nn1-c1ccc2ccccc2c1` (stereo unspecified) [3-(3-(3,5-dichlorophenyl)-1-(naphthalen-2-yl)-1H-pyrazol-5-yloxy)-N-(1-(diethylamino)-6-methyloctan-4-yl)propanamide], the IC50 stood at 225 nM.

On to `CCC(CCCN(CC)CC)NC(=O)CCOc1cc(-c2cc(Cl)cc(Cl)c2)nn1-c1ccc2ccccc2c1` (stereo unspecified) [3-(3-(3,5-dichlorophenyl)-1-(naphthalen-2-yl)-1H-pyrazol-5-yloxy)-N-(6-(diethylamino)hexan-3-yl)propanamide], for which the IC50 came to 83 nM. Consider `CCN(CC)CCCC(CC(C)C)NC(=O)CCOc1cc(-c2cc(Cl)cc(Cl)c2)nn1-c1ccc2ccccc2c1` (stereo unspecified) [3-(3-(3,5-dichlorophenyl)-1-(naphthalen-2-yl)-1H-pyrazol-5-yloxy)-N-(1-(diethylamino)-6-methylheptan-4-yl)propanamide], for which the IC50 turned out to be 178 nM. With `COC(=O)[C@H](CCCN=C(N)N)NC(=O)CCNc1cc(-c2cc(Cl)cc(Cl)c2)nn1-c1ccc2ccccc2c1` [(S)-2-{3-[5-(3,5-dichloro-phenyl)-2-naphthalen-2-yl-2H-pyrazol-3-ylamino]-propionylamino}-5-guanidino-pentanoic acid methyl ester] the figure was 68 nM. With `COC(=O)[C@H](CCCN=C(N)N)NC(=O)CCCc1cc(-c2cc(Cl)cc(Cl)c2)nn1-c1ccc2ccccc2c1` [(S)-2-{4-[5-(3,5-dichloro-phenyl)-2-naphthalen-2-yl-2H-pyrazol-3-yl]-butyrylamino}-5-guanidino-pentanoic acid methyl ester] the figure was 185 nM; with `CCCC(CCCN(CC)CC)NC(=O)CCOc1cc(-c2cc(Cl)cc(Cl)c2)nn1-c1ccc2ccccc2c1` (stereo unspecified) [3-(3-(3,5-dichlorophenyl)-1-(naphthalen-2-yl)-1H-pyrazol-5-yloxy)-N-(1-(diethylamino)heptan-4-yl)propanamide], 154 nM.

(Values after BindingDB's records for doi:10.1016/j.bmcl.2006.10.060 (Merck Research Laboratories, 2007).)
